In brackets after ≈: the same amount, converted by molar mass. Entries after “also recorded” stand apart in the source; their conditions may differ. Numbered stars: 1 amine (or outer) side, 2 acyl side, 3 side chain; on linkers, the order of the positions; unused ones are H or OH. Bridge positions count the residues as written; N and C are the ends. Square brackets hold non-standard residues; d marks the D form. Peptide text beside a SMILES is read from it. * marks the point of attachment. Octanoyl(6-Me) = CCC(C)CCCCC(=O)*; NH(2-ClPh) = Clc1ccccc1N*; Dab = NCC[CH](N)C(=O)O; CO = O=C([*:1])[*:2]
How the values were obtained:
[1] = tested on: Acinetobacter baumannii 1570; assay: MIC, broth microdilution; assay type: cell-based; conditions: for MIC against A. baumannii #1570: Table 8, range of repeated tests
Method: MIC testing was performed according to Clinical and Laboratory Standards Institute (CLSI) M7-A7 (2006) broth microdilution methods. Unless otherwise indicated, MIC values are provided in units of micrograms per milliliter.
One day prior to testing, individual colonies were isolated by streaking onto rich, non-selective Tryptic Soy agar with 5% lysed sheeps blood (TSAB) with incubation at 35-37° C. for 18-24 hours.
Cultures were prepared by touching 3-5 colonies into 3 mL of Cation adjusted Mueller Hinton Broth (caMHB) in a 14 mL tube (CaMHB was prepared and sterilized according to manufacturer's specifications). Cultures were grown at 37° C. 200 rpm for approximately four hours prior to density adjustment for addition to the MIC assay.
OD600 of growing cultures was measured and adjusted to approximately 10^5 colony forming units per mL (CFU/mL) in caMHB for MIC inoculation (approximately OD600 0.001).
Diluted cultures were used to inoculate 50 μL per well in broth microdilution assays (final volume 100 μl per well; compounds were prepared in two-fold dilutions).
Plates were incubated 16-20 hrs at 37° C., with shaking at 200 rpm.
OD600 was determined for all wells. Growth was defined as OD600>0.1. MICs were defined as the lowest concentration producing no visible turbidity (OD600<0.1).
A. baumannii #1570 were grown in cation adjusted Mueller Hinton Broth (caMHB) (catalog #B12322; Fisher Scientific, Pittsburgh, Pa.) at 37° C. MIC testing was performed according to Clinical and Laboratory Standards Institute [CLSI, formerly National Committee for Clinical Laboratory Standards (NCCLS), Wayne, Pa.] guidelines for broth microdilution.
MIC testing was performed according to CLSI (formerly NCCLS) guidelines for broth microdilution.

[2] = Cell culture cytotoxicity assay (ATP bioluminescence, LLC-PK1); assay type: cell-based, rat; conditions: rat; read-out: EC50, rat kidney proximal tubule cell culture cytotoxicity assay
Method: Day 1: 1×10^5 to 2×10^5 cellswere inoculated (Cell line: LLC-PK1) per flask, containing 4 mL/T25 flask of medium DMEM-F12 (50/50) media supplemented with 10% FBS (Fetal Bovine Serum). The cells were then incubated at 37° C., 5% CO2, 80% RH.
Day 4: The cell cultures were examined to determine 80% confluency. To trypsinize of the 80% confluent flasks, 4 mL of DMEM-F12-10% FBS media was prepared per flask. The media was aspirated from the flask and 5 mL of Versene was added to rinse the flask. The Versene was aspirated and 2 mL of triple Express solution (trypsin solution) was added. The cells were incubated for 5 min at room temperature and examined via microscopy for the rounding of the cells and their detachment. To speed up the reaction, the flask can be incubated at 37° C. for 3 minutes. 4 mL of media (DMEM-F12-10%FBS) was added to stop the reaction. Using a 5 mL pipette, the completed reaction was pipetted up and down to ensure that the cells were properly detached from the flask and from each others. The cell number was counted using a hemocytometer slide. 100 μL of cell suspension was transferred to a tube and 100 μL of Trypan Blue was added. Inoculum for 96 well is 10,000 cells per well. For one 96 well plate, 26.3 μL×110 well=2893 μL total. 2.9 mL of cell suspension was mixed with 8.1 mL of media DMEM-F12-10% FBS and 100 μL was distributed to each well using a multichannel pipetter. The plate was then Incubated for 24 h at 37° C.
Day 5: DMEM-F12 (no FBS) medium was dispensed into tubes with the test article to achieve final concentrations of […]. The 96 well plate was taken off the incubator and media was removed from each well using multichannel pipetter. 80 μL of serially diluted compounds of Formula (I) was added to each well. Every set of concentration was done in triplicate. Media and positive controls were added to each plate and the plates were incubated for 24 hours at 37° C.
Day 6: The plates were taken from the incubator, the media was removed from each well, and 100 μL of fresh media DMEM-F12 (this is equivalent to a rinse and the media can be replaced with PBS) was added. The media is then removed and 80 μL of cell lysis solution is added. After 5 minutes, 80 μL of sterile filtered high quality water was added to each well. Using a white or black 96 well reaction plate, 80 μL of 25× diluted ATP mix reagent (Sigma Bioluminescent Somatic Cell Assay Kit [cat #FL-ASC]) was added into one column. 80 μL of diluted ATP standards (dilutions used: 250, 500, 1000, 2000 and 4000) was added and the plate was read immediately in the topcount with a 2 second read time. In another white or black 96 well reaction plate, 80 μL of 25× diluted ATP mix reagent (plate A) was added and 80 μL of lysis-water solution was transferred to each column of plate A. The plate was then read immediately in the topcount with a 2 second read time. This process was repeated for next consecutive plate and the EC50 for certain compounds of Formula I were calculated and provided in Table 4.

cynomolgus monkeys = assay: Comparative 7 day repeat dose safety study, renal toxicity; assay type: in vivo, cynomolgus monkey; conditions: for renal histologic findings: IV infusion; for nephrotoxicity compared with polymyxin B: equivalent antibacterial activity doses (75,000 to 112,500 IU/kg), FIG. 2
Method: A comparative 7 day repeat dose safety study in cynomologous monkeys between polymyxin B and Compound 5 was performed.
Animals were 2.52 kg to 3.77 kg and were 4.2 to 5.7 years old. During acclimation, a chronic femoral intravenous catheter was implanted into all animals to permit continuous infusion. The femoral vein catheter was routed subcutaneously to exit through a prepared incision in the interscapular region. Animals were fitted with jackets connected to flexible stainless steel tethers that protected the catheters.
(§1) Monkeys were dosed twice or three times daily for seven days with control article (0.9% Sodium Chloride for Injection, USP), 25000 IU/kg Compound 5, 37500 IU/kg Compound 5, or 37500 IU/kg PMB (Alpharma, lot number A1411079). Each administration was given via a targeted 30-minute intravenous infusion.
(§2) The following parameters were evaluated: daily clinical observations and qualitative food consumption, body weight (twice prior to the first dosing and at necropsy), urinalysis, hematology, coagulation, serum chemistry, toxicokinetics, gross pathology, organ weights, and histopathology of the kidneys and injection sites, and of the liver and sciatic nerves of control and high dose groups. Animals were evaluated through Study Day 7 and then terminated.
FIG. 2 is a scatter plot showing nephrotoxicity data measured as a cumulative score based upon tubular degeneration, tubular regeneration, tubular dilatation, and tubular casts. Each category was scored on a basis from 0 to 4 based on the severity of each finding.
For comparison of Compound 5 and polymyxin B, the nephrotoxicity was measured as a cumulative score based upon tubular degeneration, tubular regeneration, tubular dilatation, and tubular casts. Each category was scored on a basis from 0 to 4 based on the severity of each finding and individual monkeys are represented in the FIG. 2.

[3] = Pharmacokinetics/toxicokinetics in repeat-dose studies; assay type: in vivo, cynomolgus monkey
Method: as §1, §2
At higher dose levels, a slightly greater than dose-proportional response was evident in systemic exposure (AUC) and peak plasma concentrations (Cmax). The decrease in clearance at these higher doses may explain the non-linear systemic exposure to Compound 5.

| SMILES | MIC Acinetobacter baumannii 1570 ([1]; Table 3B) [micrograms/mL] | MIC against A. baumannii #1570 [1] | EC50 at 24 h [2] [µg/mL] | renal histologic findings (cynomolgus monkeys; 75,000 IU/kg/day, 7 days) | renal histologic findings (cynomolgus monkeys; 112,500 IU/kg/day, 7 days) | nephrotoxicity compared with polymyxin B (cynomolgus monkeys) | nephrotoxicity compared with polymyxin B (cynomolgus monkeys; listed as compound 5) | volume of distribution ([3]; all species) | clearance (CL) ([3]; cynomolgus monkey, in vivo) | serum creatinine and BUN concentrations (cynomolgus monkeys; 75,000 IU/kg/day, 7 days) | serum creatinine and blood urea nitrogen concentrations (cynomolgus monkeys; 112,500 IU/kg/day, 7 days) | maximal plasma concentrations (Cmax) relative to Compound 5 ([3]; greater, Day 1, 37,500 IU/kg) | systemic exposure (AUC) relative to Compound 5 ([3]; greater, same activity-normalized dose) [fold] | systemic clearance relative to Compound 5 ([3]; less, Day 1) [fold] | volume of distribution relative to Compound 5 ([3]; lower) |
| --- | --- | --- | --- | --- | --- | --- | --- | --- | --- | --- | --- | --- | --- | --- | --- |
| CC(C)C[C@@H]1NC(=O)[C@@H](Cc2ccccc2)NC(=O)[C@H](CCN)NC(=O)[C@@H](NC(=O)[C@H](CCN)NC(=O)[C@@H](NC(=O)[C@H](CCN)NC(=O)Nc2ccccc2Cl)[C@@H](C)O)CCNC(=O)[C@H]([C@@H](C)O)NC(=O)[C@H](CCN)NC(=O)[C@H](CCN)NC1=O [Compound 5, (S)-4-amino-N-((2S,3R)-1-((S)-4-amino-1-oxo-1-((3S,6S,9S,12S,15R,18S,21S)-6,9,18-tris(2-aminoethyl)-15-benzyl-3-((R)-1-hydroxyethyl)-12-isobutyl-2,5,8,11,14,17,20-heptaoxo-1,4,7,10,13,16,19-heptaazacyclotricosan-21-ylamino)butan-2-ylamino)-3-hydroxy-1-oxobutan-2-yl)-2-(3-(2-chlorophenyl)ureido)butanamide] ({NH(2-ClPh)-CO}-[Dab]T[Dab][Dab][Dab][dF]L[Dab][Dab]T; lactam 4-C) | 4 | 2-4 micrograms/ml | > 1000 | very minimal histologic changes | increases in numbers and severity of cortical and medullary tubules containing necrotic or degenerative cells | notably less severe nephrotoxicity; also recorded: markedly less nephrotoxic | reduced renal toxicity | greater than blood volume | less than hepatic blood flow |  |  |  |  |  |  |
| CCC(C)CCCCC(=O)NC(CCN)C(=O)NC(C(=O)NC(CCN)C(=O)NC1CCNC(=O)C(C(C)O)NC(=O)C(CCN)NC(=O)C(CCN)NC(=O)C(CC(C)C)NC(=O)C(Cc2ccccc2)NC(=O)C(CCN)NC1=O)C(C)O (stereo not shown) [Polymyxin B, polymyxin B, reference compound] ({Octanoyl(6-Me)}-[Dab]T[Dab][Dab][Dab]FL[Dab][Dab]T; lactam 4-C; configuration not given here) |  | 1-2 micrograms/ml | 318 (≈ 264 µM) | renal tubular histology similar to findings from animals receiving 112,500 IU/kg/day of Compound 5 | involvement of a majority of cortical and some medullary tubules containing necrotic or degenerate cells |  |  |  |  | mild increases | elevations | approximately 2 fold | 2.5 | 2 to 3 | approximately 2 fold |
